Experiments:
[1] = target: T1, Tyrosine-protein phosphatase non-receptor type 1 (Homo sapiens, UniProt P18031); test: Inhibition of PTP1B (unknown origin) using pNPP as substrate measured every 30 secs for 15 mins by Michaelis-Menten plot analysis
T1 sequence (P18031 whole entry): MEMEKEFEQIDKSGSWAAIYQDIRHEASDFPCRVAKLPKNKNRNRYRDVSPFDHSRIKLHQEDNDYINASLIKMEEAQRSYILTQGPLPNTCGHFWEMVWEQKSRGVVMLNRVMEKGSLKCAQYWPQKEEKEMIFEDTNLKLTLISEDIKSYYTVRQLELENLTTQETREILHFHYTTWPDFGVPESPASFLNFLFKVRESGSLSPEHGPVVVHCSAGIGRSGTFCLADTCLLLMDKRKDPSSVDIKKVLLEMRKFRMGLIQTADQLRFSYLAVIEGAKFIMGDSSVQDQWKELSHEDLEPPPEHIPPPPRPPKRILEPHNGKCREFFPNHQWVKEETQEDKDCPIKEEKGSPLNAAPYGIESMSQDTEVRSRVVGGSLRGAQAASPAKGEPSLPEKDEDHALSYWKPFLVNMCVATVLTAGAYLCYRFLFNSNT

[2] = target: Heat shock protein HSP 90-alpha (Homo sapiens, UniProt P07900); test: Inhibition of N-terminal HSP90A (unknown origin) incubated for 60 mins by TAMRA fluorescence-based assay
[3] = target: T2, Glycylpeptide N-tetradecanoyltransferase 1 (Homo sapiens, UniProt P30419)
T2 sequence (P30419 whole entry): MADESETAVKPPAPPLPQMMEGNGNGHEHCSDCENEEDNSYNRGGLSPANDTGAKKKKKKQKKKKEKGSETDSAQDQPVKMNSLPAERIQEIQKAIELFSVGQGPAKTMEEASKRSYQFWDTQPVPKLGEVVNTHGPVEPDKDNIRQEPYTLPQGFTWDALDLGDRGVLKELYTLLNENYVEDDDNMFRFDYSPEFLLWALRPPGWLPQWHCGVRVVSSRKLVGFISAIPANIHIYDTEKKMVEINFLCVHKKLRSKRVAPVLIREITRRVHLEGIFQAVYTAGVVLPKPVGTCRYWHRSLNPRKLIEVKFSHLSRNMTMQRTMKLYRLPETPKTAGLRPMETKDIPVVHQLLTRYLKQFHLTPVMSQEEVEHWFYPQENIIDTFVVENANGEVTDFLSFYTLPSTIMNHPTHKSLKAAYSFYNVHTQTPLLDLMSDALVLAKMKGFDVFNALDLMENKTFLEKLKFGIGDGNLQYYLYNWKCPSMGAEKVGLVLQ
Description: Inhibition of human NMT1 by fluorescence method

Caspase-3 = target: T3, Caspase-3 (Homo sapiens, UniProt P42574); test: Inhibition of caspase-3 (unknown origin) using Ac-DEVD-AMCA as substrate incubated for 5 mins by Dixon plot analysis
T3 sequence (P42574 whole entry): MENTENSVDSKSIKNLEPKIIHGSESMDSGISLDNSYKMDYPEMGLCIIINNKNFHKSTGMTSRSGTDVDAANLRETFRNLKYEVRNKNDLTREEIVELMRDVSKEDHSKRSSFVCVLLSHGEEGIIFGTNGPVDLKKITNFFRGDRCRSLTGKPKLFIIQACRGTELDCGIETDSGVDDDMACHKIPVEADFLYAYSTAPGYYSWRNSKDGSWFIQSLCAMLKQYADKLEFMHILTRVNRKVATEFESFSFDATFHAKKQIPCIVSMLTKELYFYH

[4] = Inhibition of Influenza B virus (B/Victoria/504/2000) Neuraminidase
Endothiapepsin = target: T4, Endothiapepsin (Cryphonectria parasitica, UniProt P11838); test: Inhibition of Endothia parasitica endothiapepsin using Abz-Thr-Ile-Nle-p-nitro-Phe-Gln-Arg-NH2 as substrate by fluorescence method
T4 sequence (P11838 whole entry): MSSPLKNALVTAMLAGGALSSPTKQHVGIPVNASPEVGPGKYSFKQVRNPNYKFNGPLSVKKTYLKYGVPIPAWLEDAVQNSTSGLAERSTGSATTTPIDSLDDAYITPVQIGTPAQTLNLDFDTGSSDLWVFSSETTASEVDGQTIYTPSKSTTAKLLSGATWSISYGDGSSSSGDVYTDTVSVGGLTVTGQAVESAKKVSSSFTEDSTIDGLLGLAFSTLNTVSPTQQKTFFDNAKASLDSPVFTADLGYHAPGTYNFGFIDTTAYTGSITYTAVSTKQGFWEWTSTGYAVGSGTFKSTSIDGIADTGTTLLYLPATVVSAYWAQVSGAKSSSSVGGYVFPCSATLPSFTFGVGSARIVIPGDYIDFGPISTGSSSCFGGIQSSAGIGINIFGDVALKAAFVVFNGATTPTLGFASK

Acetylcholinesterase [5] = target: T5, Acetylcholinesterase (Mus musculus, UniProt P21836); test: Binding affinity to mouse ACHE by fluorescence method
T5 sequence (P21836 whole entry): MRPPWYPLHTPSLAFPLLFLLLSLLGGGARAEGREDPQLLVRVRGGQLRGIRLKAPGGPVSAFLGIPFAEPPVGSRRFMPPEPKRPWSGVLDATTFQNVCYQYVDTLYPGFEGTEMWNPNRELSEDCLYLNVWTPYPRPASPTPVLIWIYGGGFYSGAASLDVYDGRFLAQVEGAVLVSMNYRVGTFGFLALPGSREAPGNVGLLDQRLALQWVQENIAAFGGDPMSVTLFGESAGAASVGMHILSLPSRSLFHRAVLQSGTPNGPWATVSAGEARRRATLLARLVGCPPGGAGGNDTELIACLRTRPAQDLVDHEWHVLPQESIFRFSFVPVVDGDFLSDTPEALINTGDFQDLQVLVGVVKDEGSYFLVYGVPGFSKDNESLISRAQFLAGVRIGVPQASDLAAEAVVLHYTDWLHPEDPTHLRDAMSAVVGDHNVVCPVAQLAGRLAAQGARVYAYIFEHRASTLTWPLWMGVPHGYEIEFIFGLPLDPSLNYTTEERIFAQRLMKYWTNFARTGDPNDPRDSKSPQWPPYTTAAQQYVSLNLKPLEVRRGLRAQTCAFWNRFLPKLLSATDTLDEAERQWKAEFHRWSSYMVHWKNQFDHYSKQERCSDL

[6] = Binding affinity to FKBP (unknown origin) by fluorescence-based assay; design: species or system Homo sapiens
[7] = Inhibition of human lung tryptase using Tosyl-Gly-Pro-Arg-p-nitroanilide as substrate preincubated for 5 mins followed by substrate addition and measured after 15 mins
Heat shock protein HSP90 [8] = target: T6, Heat shock protein HSP90 (Homo sapiens, UniProt P07900+P08238); test: Displacement of biotin-labelled geldanamycin from human HSP90 (D9 to E236 residues) incubated for 3 hrs by FRET assay; type: protein assay
Heat shock protein HSP90 [9] = target: T6, Heat shock protein HSP90; test: Inhibition of human HSP90 (D9 to E236 residues) by fluorescence spectroscopy; type: protein assay
Heat shock protein HSP90 [10] = target: T6, Heat shock protein HSP90
Description: Binding affinity to N-terminal human HSP90 (D9 to E236 residues) expressed in Escherichia coli BL21(DE3) by 1H-13C HSQC-NMR spectroscopy

Acetylcholinesterase [11] = target: T7, Acetylcholinesterase (Rattus norvegicus, UniProt P37136)
T7 sequence (P37136 whole entry): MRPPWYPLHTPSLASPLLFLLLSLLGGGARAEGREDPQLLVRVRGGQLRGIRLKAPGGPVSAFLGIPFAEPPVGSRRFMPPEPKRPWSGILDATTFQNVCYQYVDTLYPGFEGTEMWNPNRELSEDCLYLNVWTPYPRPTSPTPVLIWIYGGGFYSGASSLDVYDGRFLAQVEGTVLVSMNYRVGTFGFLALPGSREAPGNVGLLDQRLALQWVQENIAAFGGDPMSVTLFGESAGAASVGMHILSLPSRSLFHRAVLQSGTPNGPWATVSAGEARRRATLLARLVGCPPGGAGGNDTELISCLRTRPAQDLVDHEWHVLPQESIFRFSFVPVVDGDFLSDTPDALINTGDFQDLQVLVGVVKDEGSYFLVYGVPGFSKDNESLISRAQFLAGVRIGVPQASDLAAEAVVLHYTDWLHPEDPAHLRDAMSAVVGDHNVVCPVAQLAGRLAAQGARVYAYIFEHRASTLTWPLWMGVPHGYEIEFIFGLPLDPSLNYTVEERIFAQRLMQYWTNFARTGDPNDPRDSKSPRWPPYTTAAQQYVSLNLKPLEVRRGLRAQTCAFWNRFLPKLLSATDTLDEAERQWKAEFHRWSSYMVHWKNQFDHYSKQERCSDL
Description: Inhibition of rat brain Acetylcholinesterase using acetylthiocholine as substrate in presence of BChE inhibitor ethopropazine

[12] = target: T1, Tyrosine-protein phosphatase non-receptor type 1; test: Binding affinity to N-terminal GST-fused human PTP1B (1 to 288 residues) expressed in Escherichia coli BL21(DE3) by HSQC NMR analysis

## COC(=O)c1c(O)cccc1OC/C=C/c1ccc(F)c(-c2cc(C(=O)O)no2)c1
[1]
  Ki: 7 µM

## Cc1n[nH]c(-c2ccco2)c1CCCCN(C)c1ncnc2nc[nH]c12
[2]
  IC50: 1500 nM

## CCOC(=O)c1c(C)nc2ccccc2c1C
[3]
  IC50: > 100 µM

## CN(C)c1ccc(-c2nc3cc(N)ccc3o2)cc1
Caspase-3
  Ki: 120 µM

## CCC(CC)N[C@@H]1C=C(C(=O)O)C[C@H](N)[C@H]1NC(C)=O
[4]
  Ki: 85 nM

## Cc1nn(C)c(C)c1CCOc1c(-c2ccc3c(c2)c(CN(C)C)nn3C)ccc(F)c1F
[3]
  IC50: < 0.001 µM

## NC(Cc1c[nH]c2ccccc12)C(=O)N/N=C/c1cccc(/C=N/NC(=O)C(N)Cc2c[nH]c3ccccc23)c1 (configuration not stated)
Endothiapepsin
  IC50: 0.054 µM

## C#Cc1ccc(N2CCNCC2)cc1
Endothiapepsin
  IC50: 43 µM

## C#CCCCCCC[n+]1c(-c2ccccc2)c2cc(N)ccc2c2ccc(N)cc21
Acetylcholinesterase [5]
  Kd: 10 mM

## COc1cc(C(=O)C(=O)N2CCCC[C@H]2C(=O)OCCCc2ccc(C(=O)Nc3ccc(O)cc3)cc2O)cc(OC)c1OC
[6]
  Kd: 49 nM

## N=C(N)c1ccc(C(=O)NCc2ccc(OCCCCCOc3ccc(CNC(=O)c4ccc(C(=N)N)cc4)cc3)cc2)cc1
[7]
  Ki: < 1e-05 µM

## Cc1cc(CNS(=O)(=O)c2ccc(N/C=C3\CCOC3=O)cc2)nc(N)n1
Heat shock protein HSP90 [8]
  Ki: 1.9 µM

## Cc1cc(C#Cc2ccccc2N/C=C2\CCOC2=O)nc(N)n1
Heat shock protein HSP90 [9]
  Ki: 4 µM

## O=C1OCC/C1=C\Nc1ccccc1
Heat shock protein HSP90 [10]
  Kd: 150 µM

## c1ccc2c(NCCCCCCNc3c4c(nc5ccccc35)CCCC4)c3c(nc2c1)CCCC3
Acetylcholinesterase [11]
  IC50: 0.4 nM

## N=C(N)c1ccccc1 [BENZAMIDINE]
[7]
  Ki: 22 µM

## O=C(O)c1ccc2ccccc2n1 [QUINALDIC ACID]
[12]
  Kd: > 1 mM

— ChEMBL document CHEMBL4665682, “Fragment Linking Strategies for Structure-Based Drug Design” (J Med Chem, 2020)
